Where two headings read alike, the source gives them in different places.

The record followed here is patent publication US7601856B2 (Wyeth, priority 2006, dated 2009).

The test system of the assay is isolated rat bladder strips. As to the kind of experiment: Inhibition of contractions of isolated rat bladder strips. Conditions: for IC50: 0.5 h; for inhibition at 30 µM: read-out: % Inhibition of Contractility @ 30 μM. The method, then: The compounds of the examples were tested to determine their ability to inhibit contractions of isolated rat bladder strips. See Foster, C. […] Malmgren, A. et al. J.Urol.
Male Sprague-Dawley rats (150-200 g) were obtained from ACE animal suppliers. Animals were allowed free access to food and water.
Animals were euthanized by CO2 asphyxiation followed by a bilateral thoracotomy. […] The bladder was opened and then cut into strips 1-2 mm in width and 7-10 mm in length. The strips were subsequently suspended in a 10 ml tissue bath under an initial resting tension of 1.5 g. The strips were held in place by two surgical clips one of which was attached to a fixed hook while the other was attached to an isometric force transducer. […] The carbachol was then washed out and the tissue allowed to relax to its resting level of activity. Following a further 30 minute period of recovery an additional 15 mM KCl were introduced into the tissue bath. […] Following stabilization of this enhanced level of contractile activity, incremental increases in the concentration of test compound or vehicle were introduced into the tissue bath. Contractile activity was measured for each compound or vehicle concentration during the last minute of a 30 minute challenge.
Isometric force developed by the bladder strips was measured using a force transducer and recorded on a polygraph. Contractile activity was assessed by measuring either the average amplitude of the contractions (baseline to peak force) occurring during a one minute period or, preferably, by integrating the contractile activity with respect to time (one minute measuring period).
The percentage inhibition of contractile activity evoked by each concentration of a given test compounds was used to generate a concentration-response curve.

Setting [1] is: concentration eliciting 50% inhibition of pre-drug contractile activity, strips stimulated with additional 15 mM KCl, 30 minute challenge per concentration, read-out: IC50.
Where [2] appears, read: maximum percentage inhibition of contractile activity, 30 μM, strips stimulated with additional 15 mM KCl.

Usually IC50 stands for the concentration needed to halve the response being measured. In the case of `C[C@@H](OCc1ccccc1)C(NC(=O)OC(C)(C)C)C(=O)Nc1ccc2oc3c(c2c1)CCCCC3` (stereo in doubt) [Example 59, TERT-BUTYL {(1R,2R)-2-(BENZYLOXY)-1-[(7,8,9,10-TETRAHYDRO-6H-BENZO[B]CYCLOHEPTA[D]FURAN-2-YLAMINO)CARBONYL]PROPYL}CARBAMATE], the IC50 under setting [1] lay within 1500 to 2000 nM.
`CCCC(=O)Nc1ccc2oc3c(c2c1)CCCC3` [Example 10, N-(6,7,8,9-TETRAHYDRO-DIBENZOFURAN-2-YL)-BUTYRAMIDE]: the IC50 under setting [1] was in the range of 10000 to 15000 nM.
One may read the inhibition as the drop in the measured response relative to a control, in per cent. Regarding `O=C(Nc1ccc2oc3c(c2c1)CCCC3)c1ccc(Cl)cc1` [Example 17, 4-CHLORO-N-(6,7,8,9-TETRAHYDRO-DIBENZOFURAN-2-YL)-BENZAMIDE], the inhibition at 30 µM under setting [2] is 25 to 30%.
As for `O=C(Nc1ccc2oc3c(c2c1)CCCC3)c1ccc(F)cc1` [Example 19, 4-FLUORO-N-(6,7,8,9-TETRAHYDRODIBENZO[B,D]FURAN-2-YL)BENZAMIDE], the inhibition at 30 µM under setting [2] was in the range of 25 to 35%.
As to `O=C(Nc1ccc2oc3c(c2c1)CCCC3)c1ccc(C(F)(F)F)cc1` [Example 20, N-(6,7,8,9-TETRAHYDRODIBENZO[B,D]FURAN-2-YL)-4-(TRIFLUOROMETHYL)BENZAMIDE], under setting [2], the inhibition at 30 µM is 15 to 40%.
Same read-out and setting: the same measure for `O=C(CCc1ccccc1)Nc1ccc2oc3c(c2c1)CCCC3` [Example 21, 3-PHENYL-N-(6,7,8,9-TETRAHYDRODIBENZO[B,D]FURAN-2-YL)PROPANAMIDE]: 10 to 30%.
With `CCCCCC(=O)Nc1ccc2oc3c(c2c1)CCCC3` [Example 22, N-(6,7,8,9-TETRAHYDRODIBENZO[B,D]FURAN-2-YL)HEXANAMIDE], the IC50 under setting [1] is 1000 to 3000 nM.
As for `O=C(Cc1ccc(F)cc1)Nc1ccc2oc3c(c2c1)CCCCC3` [Example 30, 2-(4-FLUOROPHENYL)-N-(7,8,9,10-TETRAHYDRO-6H-BENZO[B]CYCLOHEPTA[D]FURAN-2-YL)ACETAMIDE], under setting [2], the inhibition at 30 µM was 30 to 50%.
As to `CCCCC(=O)Nc1ccc2oc3c(c2c1)CCCCC3` [Example 31, N-(7,8,9,10-TETRAHYDRO-6H-BENZO[B]CYCLOHEPTA[d]FURAN-2-YL)PENTANAMIDE], the IC50 under setting [1] was in the range of 3000 to 5000 nM.
Turning to `CCOC(=O)CCC(=O)Nc1ccc2oc3c(c2c1)CCCCC3` [Example 32, ETHYL 4-OXO-4-(7,8,9,10-TETRAHYDRO-6H-BENZO[B]CYCLOHEPTA[D]FURAN-2-YLAMINO)BUTANOATE], under setting [1], the IC50 fell in the range of 9000 to 12000 nM.
With `CC(C)(C)c1ccc(C(=O)Nc2ccc3oc4c(c3c2)CCCCC4)cc1` [Example 33, 4-TERT-BUTYL-N-(7,8,9,10-TETRAHYDRO-6H-BENZO[B]CYCLOHEPTA[D]FURAN-2-YL)BENZAMIDE], the IC50 under setting [1] fell in the range of 2000 to 3000 nM.
Same read-out and setting: the same measure for `CCC(=O)Nc1ccc2oc3c(c2c1)CCCCC3` [Example 34, N-(7,8,9,10-TETRAHYDRO-6H-BENZO[B]CYCLOHEPTA[D]FURAN-2-YL)PROPANAMIDE]: 500 to 800 nM; for `CCCCCC(=O)Nc1ccc2oc3c(c2c1)CCCCC3` [Example 35, N-(7,8,9,10-TETRAHYDRO-6H-BENZO[B]CYCLOHEPTA[D]FURAN-2-YL)HEXANAMIDE]: 6000 to 9000 nM; for `O=C(CCc1ccccc1)Nc1ccc2oc3c(c2c1)CCCCC3` [Example 36, 3-PHENYL-N-(7,8,9,10-TETRAHYDRO-6H-BENZO[B]CYCLOHEPTA[D]FURAN-2-YL)PROPANAMIDE]: 3000 to 5000 nM.
For `O=C(Cc1cccs1)Nc1ccc2oc3c(c2c1)CCCCC3` [Example 37, N-(7,8,9,10-TETRAHYDRO-6H-BENZO[B]CYCLOHEPTA[D]FURAN-2-YL)-2-THIEN-2-YLACETAMIDE], the inhibition at 30 µM lay within 20 to 40%.
As for `O=C(Nc1ccc2oc3c(c2c1)CCCCC3)c1ccc(C(F)(F)F)cc1` [Example 38, N-7,8,9,10-TETRAHYDRO-6H-BENZO[B]CYCLOHEPTA[D]FURAN-2-yl-4-(TRIFLUOROMETHYL)BENZAMIDE], under setting [2], the inhibition at 30 µM is 5 to 10%.
Regarding `O=C(CCl)Nc1ccc2oc3c(c2c1)CCCCC3` [Example 39, 2-CHLORO-N-7,8,9,10-TETRAHYDRO-6H-BENZO[B]CYCLOHEPTA[D]FURAN-2-YLACETAMIDE], the inhibition at 30 µM was in the range of 15 to 35%.
For `O=C(CN1CCOCC1)Nc1ccc2oc3c(c2c1)CCCCC3` [Example 40, 2-MORPHOLIN-4-YL-N-7,8,9,10-TETRAHYDRO-6H-BENZO[b]CYCLOHEPTA[D]FURAN-2-YLACETAMIDE], the IC50 was in the range of 1000 to 3000 nM.
With `CN(C)CCN(C)CC(=O)Nc1ccc2oc3c(c2c1)CCCCC3` [Example 41], the IC50 fell in the range of 1000 to 5000 nM.
On to `CN(CCc1ccccn1)CC(=O)Nc1ccc2oc3c(c2c1)CCCCC3` [Example 42, N^2-METHYL-N^2-(2-PYRIDIN-2-YLETHYL)-N^1-7,8,9,10-TETRAHYDRO-6H-BENZO[B]CYCLOHEPTA[D]FURAN-2-YLGLYCINAMIDE], for which the inhibition at 30 µM lay within 30 to 40%.
As to `O=C(CN1CCC2(CC1)OCCO2)Nc1ccc2oc3c(c2c1)CCCCC3` [Example 43, 2-(1,4-DIOXA-8-AZASPIRO[4.5]DEC-8-YL)-N-7,8,9,10-TETRAHYDRO-6H-BENZO[b]CYCLOHEPTA[D]FURAN-2-YLACETAMIDE], the IC50 fell in the range of 1000 to 3000 nM.
As to `CN1CCN(CC(=O)Nc2ccc3oc4c(c3c2)CCCCC4)CC1` [Example 44, 2-(4-METHYLPIPERAZIN-1-YL)-N-7,8,9,10-TETRAHYDRO-6H-BENZO[B]CYCLOHEPTA[D]FURAN-2-YLACETAMIDE], the IC50 lay within 1000 to 3000 nM.
Take `O=C(COCCO)Nc1ccc2oc3c(c2c1)CCCCC3` [Example 45, 2-(2-HYDROXYETHOXY)-N-7,8,9,10-TETRAHYDRO-6H-BENZO[B]CYCLOHEPTA[D]FURAN-2-YLACETAMIDE]: the inhibition at 30 µM was 15 to 25%.
Regarding `CCN(C)CC(=O)Nc1ccc2oc3c(c2c1)CCCCC3` [Example 46, N^2-ETHYL-N^2-METHYL-N′-7,8,9,10-TETRAHYDRO-6H-BENZO[B]CYCLOHEPTA[D]FURAN-2-YLGLYCINAMIDE], the IC50 fell in the range of 7000 to 9000 nM.
Consider `CN(CCO)CC(=O)Nc1ccc2oc3c(c2c1)CCCCC3` [Example 47, N^2-(2-HYDROXYETHYL)-N^2-METHYL-N′-7,8,9,10-TETRAHYDRO-6H-BENZO[B]CYCLOHEPTA[D]FURAN-2-YLGLYCINAMIDE], for which the inhibition at 30 µM is 10%.
Still for that read-out and setting: next, `CC(C)(C)OCC(=O)Nc1ccc2oc3c(c2c1)CCCCC3` [Example 48, 2-TERT-BUTOXY-N-7,8,9,10-TETRAHYDRO-6H-BENZO[B]CYCLOHEPTA[D]FURAN-2-YLACETAMIDE]: 10 to 15%.
For `C[C@H](NC(=O)OCc1ccccc1)C(=O)Nc1ccc2oc3c(c2c1)CCCCC3` [Example 49, BENZYL [(1S)-1-METHYL-2-OXO-2-(7,8,9,10-TETRAHYDRO-6H-BENZO[B]CYCLOHEPTA[D]FURAN-2-YLAMINO)ETHYL]CARBAMATE], under setting [2], the inhibition at 30 µM is 30 to 40%.
In turn, `O=C(CN1CCN(c2ncccn2)CC1)Nc1ccc2oc3c(c2c1)CCCCC3` [Example 50, 2-(4-PYRIMIDIN-2-YLPIPERAZIN-1-YL)-N-7,8,9,10-TETRAHYDRO-6H-BENZO[B]CYCLOHEPTA[D]FURAN-2-YLACETAMIDE] displayed an IC50 of 3000 to 5000 nM.
`CC(C)(C)OC(=O)NCC(=O)Nc1ccc2oc3c(c2c1)CCCCC3` [Example 51, TERT-BUTYL [2-OXO-2-(7,8,9,10-TETRAHYDRO-6H-BENZO[B]CYCLOHEPTA[D]FURAN-2-YLAMINO)ETHYL]CARBAMATE]: under setting [2], the inhibition at 30 µM is 25 to 40%.
Take `NCC(=O)Nc1ccc2oc3c(c2c1)CCCCC3` [Example 52, N^1-7,8,9,10-TETRAHYDRO-6H-BENZO[B]CYCLOHEPTA[D]FURAN-2-YLGLYCINAMIDE]: the inhibition at 30 µM lay in the range of 20 to 30%.
For the molecule `CC(C)(C)OC(=O)N[C@@H](Cc1ccccc1)C(=O)Nc1ccc2oc3c(c2c1)CCCCC3` [Example 53, TERT-BUTYL [(1S)-1-BENZYL-2-OXO-2-(7,8,9,10-TETRAHYDRO-6H-BENZO[B]CYCLOHEPTA[D]FURAN-2-YLAMINO)ETHYL]CARBAMATE], the inhibition at 30 µM under setting [2] is 15 to 25%.
Turning to `CC(C)(C)OC(=O)N1CCC[C@H]1C(=O)Nc1ccc2oc3c(c2c1)CCCCC3` [Example 54, TERT-BUTYL (2S)-2-[(7,8,9,10-TETRAHYDRO-6H-BENZO[B]CYCLOHEPTA[D]FURAN-2-YLAMINO)CARBONYL]PYRROLIDINE-1-CARBOXYLATE], the IC50 under setting [1] was 6000 to 8000 nM.
On the same count and under the same terms, next, `CC(C)(C)OC(=O)N[C@@H](Cc1ccncc1)C(=O)Nc1ccc2oc3c(c2c1)CCCCC3` [Example 55, TERT-BUTYL [(1S)-2-OXO-1-(PYRIDIN-4-YLMETHYL)-2-(7,8,9,10-TETRAHYDRO-6H-BENZO[B]CYCLOHEPTA[D]FURAN-2-YLAMINO)ETHYL]CARBAMATE]: 7000 to 10000 nM; `C[C@H](NC(=O)OC(C)(C)C)C(=O)Nc1ccc2oc3c(c2c1)CCCCC3` [Example 56, TERT-BUTYL [(1S)-1-METHYL-2-OXO-2-(7,8,9,10-TETRAHYDRO-6H-BENZO[B]CYCLOHEPTA[D]FURAN-2-YLAMINO)ETHYL]CARBAMATE]: 300 to 600 nM.
Consider `O=C(Nc1ccc2oc3c(c2c1)CCCCC3)[C@@H]1CCCN1` [Example 57, N-7,8,9,10-TETRAHYDRO-6H-BENZO[B]CYCLOHEPTA[D]FURAN-2-YL-L-PROLINAMIDE], for which, under setting [2], the inhibition at 30 µM lay within 20 to 30%.
